From PMC12668310, “High‐Throughput Synthesis and Screening of a Cyanimide Library Identifies Selective Inhibitors of ISG15‐Specific Protease mUSP18” (Angewandte Chemie (International Ed. in English), 2025)
Read-outs that look alike come from different tables or passages of the source.

Molecular target: T1, mUSP18 (Mus musculus, UniProt Q9WTV6)
T1 construct: (46-368); His-tag (N); made in house
T1 sequence (Q9WTV6 46-368): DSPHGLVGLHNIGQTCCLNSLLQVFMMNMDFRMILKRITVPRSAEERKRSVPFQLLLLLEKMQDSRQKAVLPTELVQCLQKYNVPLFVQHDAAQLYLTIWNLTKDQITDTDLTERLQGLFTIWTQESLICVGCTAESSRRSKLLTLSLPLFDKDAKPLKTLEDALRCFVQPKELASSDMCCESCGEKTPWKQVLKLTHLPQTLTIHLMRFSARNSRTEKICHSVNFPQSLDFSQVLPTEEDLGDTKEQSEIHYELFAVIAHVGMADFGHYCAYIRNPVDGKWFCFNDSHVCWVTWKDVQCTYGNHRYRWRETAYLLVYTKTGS
Assay: High-throughput screening, ISG15ct-RhoMP, single dose 1.25 µM
Type: biochemical, murine
Details: for inhibition at 1.25 µM: mUSP18 %inhibition

[1] = carboxylic acid (CA) building block alone, read-out: %inh CA only
[2] = carboxylic acid (CA) with coupling reagents DIC/HOBT, read-out: %inh CA + DIC/HOBT

| Structure (SMILES) | inhibition at 1.25 µM [1] | inhibition at 1.25 µM [2] | inhibition of mUSP18 by individual CA's and coupling reagents (screened with and without DIC/HOBt) |
| --- | --- | --- | --- |
| O=C(O)c1ccc(-c2cccs2)[nH]c1=O [CA284] | 9.12% | -3.37% | – |
| O=C(O)c1ccc(F)c(F)c1 [CA059] | -4.22% | -18.1% | – |
| CC(C(=O)O)n1ccc(C2CC2)n1 (stereo not drawn) [CA323] | -0.32% | 0.72% | – |
| O=C(O)C(c1ccccc1)n1cccc1 (stereo not drawn) [CA457] | 0.68% | -4.48% | – |
| O=C(O)c1ccc(/N=N/c2ccccc2)cc1 [CA016] | 3.44% | -5.83% | – |
| O=C(O)CCCCCBr [CA025] | 7.25% | -8.17% | – |
| O=C(O)c1cccn1Cc1ccccn1 [CA414] | -4.22% | -9% | – |
| Cn1nc(-c2cccnc2)cc1C(=O)O [CA268] | 8.72% | 3.94% | – |
| O=C(O)c1ccc(S(=O)(=O)N2CCCCCC2)cc1 [CA469] | -5.44% | 4.89% | – |
| O=C(O)C1CCN(S(=O)(=O)N2CCCCC2)CC1 [CA365] | -1.04% | 2.17% | – |
| O=C(O)c1cccnc1N1CCCCC1 [CA251] | -0.46% | 6% | – |
| O=C(O)C1CC(OCc2ccccc2)C1 (stereo not drawn) [CA119] | 13.6% | 8.14% | – |
| Cc1nnnn1-c1cc(C(=O)O)cc(C(F)(F)F)c1 [CA171] | 9.55% | 3.27% | – |
| O=C(O)c1ccc(Cn2cccn2)s1 [CA355] | 7.41% | -1.93% | – |
| O=C(O)c1ccc(=O)n(C2CC2)c1 [CA451] | -1.56% | -6.2% | – |
| O=C(O)C1CCCN(c2ccc(Cl)nn2)C1 (stereo not drawn) [CA438] | -7.25% | -2.38% | – |
| COc1ccccc1N1CC(C(=O)O)CCC1=O (stereo not drawn) [CA409] | -0.2% | -6.22% | – |

| Structure (SMILES) | inhibition at 1.25 µM [1] | inhibition at 1.25 µM [2] | inhibition of mUSP18 by individual CA's and coupling reagents (screened with and without DIC/HOBt) |
| --- | --- | --- | --- |
| O=C(O)Cc1ccc(NS(=O)(=O)c2cccc(C(F)(F)F)c2)cc1 [CA467] | -0.52% | 2.94% | – |
| Cc1nn(-c2ccc(C(F)(F)F)cn2)c(C)c1CC(=O)O [CA253] | 3.16% | 9.05% | – |
| CN(Cc1ccco1)c1ccccc1C(=O)O [CA151] | 3.28% | 7.61% | – |
| Cc1nc(-c2c[nH]c(C(=O)O)c2)cs1 [CA245] | 19.9% | 52.7% | could inhibit mUSP18 |
| O=C(O)c1cn(CC2CCCO2)nn1 (stereo not drawn) [CA270] | 7.51% | 8.31% | – |
| O=C(O)c1sccc1S(=O)(=O)NCc1ccco1 [CA320] | -2.92% | 4.46% | – |
| CCS(=O)(=O)N1CCC(C(=O)O)(c2ccccc2)CC1 [CA234] | 19.5% | 0.71% | – |
| O=C(O)c1ncsc1Cc1ccccc1 [CA443] | 7.6% | 12% | – |
| O=C(O)C1CCCN1C(=O)Cc1ccccc1 (stereo not drawn) [CA228] | 2.77% | 4.1% | – |
| O=C(O)c1ccc(CN2CCCCCC2)s1 [CA279] | 4.45% | 8.32% | – |
| COc1ccc(S(=O)(=O)N(CCC(=O)O)Cc2ccccc2)cc1 [CA424] | 3.84% | -12.6% | – |
| O=C(O)C1CCN(C(=O)c2ccc(Cl)s2)CC1 [CA350] | -0.76% | 4.42% | – |
| Cc1nc(-c2ccsc2)ccc1C(=O)O [CA378] | 1.59% | -10.4% | – |
| O=C(O)c1nccc2ccccc12 [CA030] | -2.62% | -9.45% | – |
| CC1CCN(c2ncc(C(=O)O)s2)CC1 [CA172] | 9.83% | 13.4% | – |
| O=C(O)c1cnc(-c2cccnc2)s1 [CA450] | 0.56% | -9.05% | – |
| O=C(O)c1cccc(Oc2ccc(Cl)cc2)n1 [CA394] | -5.76% | -1.48% | – |
